Reference: PubChem BioAssay AID540345 (The Scripps Research Institute Molecular Screening Center, 2011)
Calls of active or inactive are those of the source. The rule behind the calls is not given here.

Experiments:
Assay in all cases: selectivity profile over receptors, transporters, CYPs – biochemical, Ricerca HitProfilingScreen, CYP450, set 2, selectivity assay for GPR7 antagonist project, profiling panel (AID 540345)
[1] = biological target: Cytochrome P450 1A2 (Homo sapiens) (UniProt P05177); conditions: Ricerca radioligand binding/CYP panel; CYP450 1A2; at 10 µM; active compounds read high
Prostanoid EP4 = conditions: Ricerca radioligand binding/CYP panel, at 10 µM, active compounds read high
Adrenergic alpha1A = conditions: Ricerca radioligand binding/CYP panel, at 10 µM, active compounds read high
[2] = biological target: Muscarinic acetylcholine receptor M3 (Homo sapiens) (UniProt P20309); conditions: Ricerca radioligand binding/CYP panel, at 10 µM, active compounds read high
Adenosine A1 = conditions: Ricerca radioligand binding/CYP panel, at 10 µM, active compounds read high
[3] = biological target: 5-hydroxytryptamine receptor 2B (Homo sapiens) (UniProt P41595); conditions: Ricerca radioligand binding/CYP panel; Serotonin (5-Hydroxytryptamine) 5-HT2B; at 10 µM; active compounds read high
GABAA = conditions: Ricerca radioligand binding/CYP panel, central, at 10 µM, active compounds read high
[4] = tested on: Alpha-2A adrenergic receptor (Homo sapiens) + Histamine H1 receptor (Homo sapiens) + Mu-type opioid receptor (Homo sapiens); conditions: Ricerca radioligand binding/CYP panel; at 10 µM; active compounds read high
[5] = biological target: Cytochrome P450 2C9 (Homo sapiens) (UniProt P11712); conditions: Ricerca radioligand binding/CYP panel; CYP450 2C9; at 10 µM; active compounds read high
[6] = tested on: Transporter Norepinephrine (NET); conditions: Ricerca radioligand binding/CYP panel, at 10 µM, active compounds read high
Adenosine A2A = conditions: Ricerca radioligand binding/CYP panel, at 10 µM, active compounds read high
[7] = biological target: D(1A) dopamine receptor (Homo sapiens) (UniProt P21728); conditions: Ricerca radioligand binding/CYP panel; Dopamine D1; at 10 µM; active compounds read high
Nicotinic Acetylcholine = conditions: Ricerca radioligand binding/CYP panel, at 10 µM, active compounds read high
Cannabinoid CB1 = conditions: Ricerca radioligand binding/CYP panel, at 10 µM, active compounds read high
[8] = biological target: Muscarinic acetylcholine receptor M2 (Homo sapiens) (UniProt P08172); conditions: Ricerca radioligand binding/CYP panel, at 10 µM, active compounds read high
Calcium Channel L-Type = conditions: Ricerca radioligand binding/CYP panel, Dihydropyridine site, at 10 µM, active compounds read high
Opiate mu (OP3, MOP) = conditions: Ricerca radioligand binding/CYP panel, at 10 µM, active compounds read high
Sodium Channel = conditions: Ricerca radioligand binding/CYP panel, Site 2, at 10 µM, active compounds read high
Adrenergic alpha1B = conditions: Ricerca radioligand binding/CYP panel, at 10 µM, active compounds read high
CYP450 2C19 = conditions: Ricerca radioligand binding/CYP panel, at 10 µM, active compounds read high
[9] = biological target: Voltage-gated inwardly rectifying potassium channel KCNH2 (Homo sapiens) (UniProt Q12809); conditions: Ricerca radioligand binding/CYP panel; Potassium Channel hERG; at 10 µM; active compounds read high
Histamine H1 = conditions: Ricerca radioligand binding/CYP panel, at 10 µM, active compounds read high
[10] = biological target: Beta-2 adrenergic receptor (Homo sapiens) (UniProt P07550); conditions: Ricerca radioligand binding/CYP panel; Adrenergic beta2; at 10 µM; active compounds read high
Adrenergic beta1 = conditions: Ricerca radioligand binding/CYP panel, at 10 µM, active compounds read high
[11] = biological target: Cytochrome P450 3A4 (Homo sapiens) (UniProt P08684); conditions: Ricerca radioligand binding/CYP panel; CYP450 3A4; at 10 µM; active compounds read high
[12] = biological target: Alpha-2A adrenergic receptor (Homo sapiens) (UniProt P08913); conditions: Ricerca radioligand binding/CYP panel; Adrenergic alpha2A; at 10 µM; active compounds read high
Glutamate NMDA = conditions: Ricerca radioligand binding/CYP panel, Phencyclidine site, at 10 µM, active compounds read high
Sigma 1 = conditions: Ricerca radioligand binding/CYP panel, at 10 µM, active compounds read high
Dopamine D2S = conditions: Ricerca radioligand binding/CYP panel, at 10 µM, active compounds read high
[13] = biological target: Cytochrome P450 2D6 (Homo sapiens) (UniProt P10635); conditions: Ricerca radioligand binding/CYP panel; CYP450 2D6; at 10 µM; active compounds read high

Measured: inhibition

Voltage-gated inwardly rectifying potassium channel KCNH2 (Homo sapiens), sequence (Q12809 whole entry, looked up): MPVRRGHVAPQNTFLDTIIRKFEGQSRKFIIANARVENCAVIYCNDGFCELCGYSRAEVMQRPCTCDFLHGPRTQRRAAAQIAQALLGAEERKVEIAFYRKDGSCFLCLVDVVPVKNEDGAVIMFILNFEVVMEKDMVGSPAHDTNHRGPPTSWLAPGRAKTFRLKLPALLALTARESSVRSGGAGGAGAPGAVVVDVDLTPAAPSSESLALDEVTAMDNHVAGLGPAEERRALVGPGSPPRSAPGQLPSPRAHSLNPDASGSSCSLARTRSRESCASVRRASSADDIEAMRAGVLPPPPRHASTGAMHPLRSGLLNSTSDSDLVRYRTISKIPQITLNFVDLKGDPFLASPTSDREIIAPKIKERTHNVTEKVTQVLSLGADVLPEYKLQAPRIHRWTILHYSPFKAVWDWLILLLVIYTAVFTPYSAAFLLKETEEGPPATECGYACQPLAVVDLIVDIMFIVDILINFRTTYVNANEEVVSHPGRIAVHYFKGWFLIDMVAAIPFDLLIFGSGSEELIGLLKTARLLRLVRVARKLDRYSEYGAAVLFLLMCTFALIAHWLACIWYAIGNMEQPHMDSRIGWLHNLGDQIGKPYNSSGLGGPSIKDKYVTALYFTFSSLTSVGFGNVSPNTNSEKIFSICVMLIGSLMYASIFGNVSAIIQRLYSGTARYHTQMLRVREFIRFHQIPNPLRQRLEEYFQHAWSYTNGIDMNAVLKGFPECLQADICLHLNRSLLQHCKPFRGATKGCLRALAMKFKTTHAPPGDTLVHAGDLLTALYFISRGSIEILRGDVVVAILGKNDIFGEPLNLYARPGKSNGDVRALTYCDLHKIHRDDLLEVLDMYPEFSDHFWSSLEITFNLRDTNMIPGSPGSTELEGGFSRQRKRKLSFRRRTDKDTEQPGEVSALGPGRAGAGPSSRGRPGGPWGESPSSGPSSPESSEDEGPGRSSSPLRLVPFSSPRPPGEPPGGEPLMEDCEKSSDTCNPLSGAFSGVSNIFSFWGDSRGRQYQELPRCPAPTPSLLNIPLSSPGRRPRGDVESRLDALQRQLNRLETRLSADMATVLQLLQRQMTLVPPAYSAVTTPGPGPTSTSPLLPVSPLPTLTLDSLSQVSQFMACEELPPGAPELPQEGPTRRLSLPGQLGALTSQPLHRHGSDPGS
Alpha-2A adrenergic receptor (Homo sapiens), sequence (P08913 whole entry, looked up): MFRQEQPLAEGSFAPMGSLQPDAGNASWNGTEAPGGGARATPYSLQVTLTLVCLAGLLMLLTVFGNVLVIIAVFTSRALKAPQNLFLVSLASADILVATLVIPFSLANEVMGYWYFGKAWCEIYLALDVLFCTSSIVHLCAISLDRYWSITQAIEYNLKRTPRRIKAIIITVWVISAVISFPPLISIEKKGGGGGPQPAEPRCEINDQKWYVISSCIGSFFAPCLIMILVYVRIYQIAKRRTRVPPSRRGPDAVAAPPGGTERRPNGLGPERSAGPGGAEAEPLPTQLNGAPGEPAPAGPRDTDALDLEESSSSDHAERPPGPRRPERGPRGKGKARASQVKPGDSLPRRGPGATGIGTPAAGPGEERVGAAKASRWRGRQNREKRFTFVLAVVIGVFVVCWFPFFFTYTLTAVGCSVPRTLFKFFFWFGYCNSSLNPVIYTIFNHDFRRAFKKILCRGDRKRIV
Muscarinic acetylcholine receptor M3 (Homo sapiens), sequence (P20309 whole entry, looked up): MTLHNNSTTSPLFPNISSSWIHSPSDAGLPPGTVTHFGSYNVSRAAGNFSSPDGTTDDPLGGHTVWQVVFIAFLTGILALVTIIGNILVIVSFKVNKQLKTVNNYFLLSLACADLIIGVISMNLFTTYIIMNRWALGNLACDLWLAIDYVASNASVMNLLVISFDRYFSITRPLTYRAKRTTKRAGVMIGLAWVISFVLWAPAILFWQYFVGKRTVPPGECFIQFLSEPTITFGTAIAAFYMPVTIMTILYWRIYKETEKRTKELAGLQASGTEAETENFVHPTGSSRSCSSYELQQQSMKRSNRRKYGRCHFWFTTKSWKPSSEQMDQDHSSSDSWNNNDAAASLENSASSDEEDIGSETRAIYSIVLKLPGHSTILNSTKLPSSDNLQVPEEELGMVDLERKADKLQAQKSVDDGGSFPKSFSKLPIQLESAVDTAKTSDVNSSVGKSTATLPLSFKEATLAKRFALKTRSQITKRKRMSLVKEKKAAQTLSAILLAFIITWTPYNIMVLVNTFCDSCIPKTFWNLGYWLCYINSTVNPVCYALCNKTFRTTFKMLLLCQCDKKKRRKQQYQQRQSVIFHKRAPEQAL
5-hydroxytryptamine receptor 2B (Homo sapiens), sequence (P41595 whole entry, looked up): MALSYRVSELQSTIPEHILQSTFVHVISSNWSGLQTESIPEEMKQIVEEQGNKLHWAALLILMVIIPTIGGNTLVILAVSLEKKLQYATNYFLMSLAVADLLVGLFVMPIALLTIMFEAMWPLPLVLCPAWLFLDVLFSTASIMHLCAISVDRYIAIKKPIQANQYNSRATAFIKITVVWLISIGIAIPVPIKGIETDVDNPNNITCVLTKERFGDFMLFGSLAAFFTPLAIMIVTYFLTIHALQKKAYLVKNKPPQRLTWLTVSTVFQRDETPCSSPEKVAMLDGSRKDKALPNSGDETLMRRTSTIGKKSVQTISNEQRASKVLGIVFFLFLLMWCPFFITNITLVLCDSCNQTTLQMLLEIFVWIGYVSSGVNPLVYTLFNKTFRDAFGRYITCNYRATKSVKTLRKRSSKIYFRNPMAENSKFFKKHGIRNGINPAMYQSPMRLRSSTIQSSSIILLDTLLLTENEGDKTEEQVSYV
Muscarinic acetylcholine receptor M2 (Homo sapiens), sequence (P08172 whole entry, looked up): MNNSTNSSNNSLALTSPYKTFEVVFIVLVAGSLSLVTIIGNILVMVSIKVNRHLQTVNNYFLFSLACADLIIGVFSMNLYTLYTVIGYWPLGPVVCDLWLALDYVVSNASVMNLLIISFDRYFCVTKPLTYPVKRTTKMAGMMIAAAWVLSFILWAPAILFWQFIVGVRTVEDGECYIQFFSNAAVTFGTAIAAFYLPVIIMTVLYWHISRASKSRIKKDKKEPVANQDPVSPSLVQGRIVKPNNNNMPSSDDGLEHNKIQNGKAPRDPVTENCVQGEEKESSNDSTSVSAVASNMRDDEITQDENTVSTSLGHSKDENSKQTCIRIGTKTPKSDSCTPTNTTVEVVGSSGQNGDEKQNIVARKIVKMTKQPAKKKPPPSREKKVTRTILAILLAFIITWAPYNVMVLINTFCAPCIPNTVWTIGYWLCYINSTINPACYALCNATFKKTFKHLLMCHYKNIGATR
Cytochrome P450 1A2 (Homo sapiens), sequence (P05177 whole entry, looked up): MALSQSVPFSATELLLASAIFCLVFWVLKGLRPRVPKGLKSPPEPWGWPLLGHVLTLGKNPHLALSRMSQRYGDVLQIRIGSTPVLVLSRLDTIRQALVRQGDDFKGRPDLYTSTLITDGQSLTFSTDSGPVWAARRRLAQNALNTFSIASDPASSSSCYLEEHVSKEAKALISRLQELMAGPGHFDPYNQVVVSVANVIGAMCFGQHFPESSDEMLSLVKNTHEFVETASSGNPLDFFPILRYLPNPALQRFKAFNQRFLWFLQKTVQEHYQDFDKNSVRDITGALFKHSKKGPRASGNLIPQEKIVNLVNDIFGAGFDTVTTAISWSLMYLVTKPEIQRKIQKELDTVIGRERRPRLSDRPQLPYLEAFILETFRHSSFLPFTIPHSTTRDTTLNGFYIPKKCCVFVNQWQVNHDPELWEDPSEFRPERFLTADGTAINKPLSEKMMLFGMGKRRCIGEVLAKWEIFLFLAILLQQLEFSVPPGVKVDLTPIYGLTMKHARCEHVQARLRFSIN
Beta-2 adrenergic receptor (Homo sapiens), sequence (P07550 whole entry, looked up): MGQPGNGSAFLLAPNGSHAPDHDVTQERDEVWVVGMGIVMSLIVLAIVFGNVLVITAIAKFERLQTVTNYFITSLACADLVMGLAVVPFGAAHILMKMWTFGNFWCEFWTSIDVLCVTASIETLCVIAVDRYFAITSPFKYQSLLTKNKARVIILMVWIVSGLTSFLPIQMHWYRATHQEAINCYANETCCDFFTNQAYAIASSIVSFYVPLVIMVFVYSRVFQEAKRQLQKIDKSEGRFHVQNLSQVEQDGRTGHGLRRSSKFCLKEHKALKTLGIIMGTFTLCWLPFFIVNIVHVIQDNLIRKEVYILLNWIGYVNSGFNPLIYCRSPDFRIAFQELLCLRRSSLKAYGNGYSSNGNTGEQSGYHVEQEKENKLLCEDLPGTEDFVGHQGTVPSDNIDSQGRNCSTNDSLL
D(1A) dopamine receptor (Homo sapiens), sequence (P21728 whole entry, looked up): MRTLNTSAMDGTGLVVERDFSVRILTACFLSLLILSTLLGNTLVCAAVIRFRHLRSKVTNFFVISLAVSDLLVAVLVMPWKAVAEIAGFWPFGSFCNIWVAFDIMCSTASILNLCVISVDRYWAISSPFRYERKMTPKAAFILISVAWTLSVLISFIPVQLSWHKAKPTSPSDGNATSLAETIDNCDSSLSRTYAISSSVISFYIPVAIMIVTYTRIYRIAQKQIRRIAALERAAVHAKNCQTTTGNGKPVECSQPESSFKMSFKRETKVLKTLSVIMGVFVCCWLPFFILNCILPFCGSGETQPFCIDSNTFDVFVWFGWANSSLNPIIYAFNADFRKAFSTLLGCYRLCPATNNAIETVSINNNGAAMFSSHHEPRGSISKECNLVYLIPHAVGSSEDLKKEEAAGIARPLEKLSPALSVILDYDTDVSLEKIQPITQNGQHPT
Cytochrome P450 2C9 (Homo sapiens), sequence (P11712 whole entry, looked up): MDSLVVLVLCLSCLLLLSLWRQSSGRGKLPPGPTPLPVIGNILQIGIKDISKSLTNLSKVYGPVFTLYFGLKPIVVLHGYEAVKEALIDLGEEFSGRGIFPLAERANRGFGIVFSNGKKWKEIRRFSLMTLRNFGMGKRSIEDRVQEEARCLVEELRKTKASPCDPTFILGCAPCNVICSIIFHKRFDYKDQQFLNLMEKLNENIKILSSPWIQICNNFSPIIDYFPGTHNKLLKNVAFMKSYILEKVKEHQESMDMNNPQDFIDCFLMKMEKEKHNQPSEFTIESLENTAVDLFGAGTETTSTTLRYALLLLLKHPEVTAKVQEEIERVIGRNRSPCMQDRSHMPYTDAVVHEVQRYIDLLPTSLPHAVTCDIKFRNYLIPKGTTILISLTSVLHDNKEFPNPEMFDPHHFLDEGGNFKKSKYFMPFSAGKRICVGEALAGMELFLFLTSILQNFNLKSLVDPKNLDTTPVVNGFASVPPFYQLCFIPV

COc1ccc(Oc2c(Cl)cnn(C3c4ccccc4-c4ccccc43)c2=O)cc1
inactive: Prostanoid EP4 5% | Adrenergic alpha1A -1% | [2] -1% | Adenosine A1 7% | GABAA; Flunitrazepam site 0% | GABAA; Muscimol site 7% | [4] 8% | [5] 13% | [6] 42% | Adenosine A2A 15% | [7] 14% | Nicotinic Acetylcholine -16% | Cannabinoid CB1 9% | [8] -2% | Calcium Channel L-Type 33% | Opiate mu (OP3, MOP) 1% | Sodium Channel 36% | Adrenergic alpha1B 8% | [9] 28% | Histamine H1 17% | [10] 4% | Adrenergic beta1 7% | [11] 26% | [12] 5% | Glutamate NMDA -18% | Sigma 1 6% | Dopamine D2S -1% | [13] 2%
active: [1] 67% | [3] 63% | CYP450 2C19 51%
